± gives the standard deviation of the averaged measurements.
Legend:
Test in all cases: level (log10 ratio to DMSO vehicle control); higher = higher biomarker level / cell amount than vehicle control
Conditions in all cases: in DMSO
[1] = compound: O=C(O)C(F)(F)C(F)(F)C(F)(F)C(F)(F)C(F)(F)C(F)(F)C(F)(F)C(F)(F)C(F)(F)C(F)(F)C(F)(F)C(F)(F)C(F)(F)F [Perfluorotetradecanoic acid]
Procedure: (§1)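 BioMAP Diversity Plus panel of 12 human primary cell co-culture systems (3C, 4H, LPS, SAg, BT, BF4T, BE3C, CASM3C, HDF3CGF, KF3CT, MyoF, Mphg). Compounds were added 1 h before stimulation and left for 24 h (MyoF 48 h; BT 72 h for soluble read-outs or 6 d for IgG). Biomarkers were read by ELISA, cytotoxicity by SRB, PBMC viability and proliferation by Alamar Blue. Each well value was divided by the mean of 8 DMSO control wells on the same plate and log10 transformed; duplicate blinded samples were tested at 4 concentrations.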

[2] = compound: O=S(=O)(O)C(F)(F)C(F)(F)C(F)(F)C(F)(F)C(F)(F)C(F)(F)C(F)(F)C(F)(F)F [Perfluorooctanesulfonic acid]
Procedure: as §1

[3] = compound: CC(C)(C)C(=O)CC(=O)C(F)(F)C(F)(F)C(F)(F)F [(Heptafluorobutanoyl)pivaloylmethane]
Procedure: as §1

[4] = compound: O=C(O)CCC(F)(F)C(F)(F)C(F)(F)C(F)(F)C(F)(F)F [2H,2H,3H,3H-Perfluorooctanoic acid]
Procedure: as §1

[5] = compound: CNS(=O)(=O)C(F)(F)C(F)(F)C(F)(F)C(F)(F)C(F)(F)C(F)(F)C(F)(F)C(F)(F)F [N-Methylperfluorooctanesulfonamide]
Procedure: as §1

[6] = compound: C=C(C)C(=O)OCC(F)(F)C(F)(F)C(F)(F)C(F)(F)C(F)(F)C(F)(F)C(F)(F)F
Procedure: as §1

[7] = compound: O=C(O)C(F)(F)C(F)(F)C(F)(F)C(=O)O [Hexafluoroglutaric acid]
Procedure: as §1

Row | Test System | level (log10) ([1]; 6700 nM) | level (log10) ([1]; 20000 nM) | level (log10) ([2]; 6700 nM) | level (log10) ([2]; 20000 nM) | level (log10) ([2]; 60000 nM) | level (log10) ([3]; 6700 nM) | level (log10) ([3]; 20000 nM) | level (log10) ([3]; 60000 nM) | level (log10) ([4]; 6700 nM) | level (log10) ([4]; 20000 nM) | level (log10) ([4]; 60000 nM) | level (log10) ([5]; 6700 nM) | level (log10) ([5]; 20000 nM) | level (log10) ([5]; 60000 nM) | level (log10) ([6]; 6700 nM) | level (log10) ([6]; 20000 nM) | level (log10) ([7]; 6700 nM) | level (log10) ([7]; 20000 nM) | level (log10) ([7]; 60000 nM)
1 | HDF3CGF:CXCL8/IL-8 | -0.0045 ± 0.012 | 0.008 ± 0.0085 | -0.017 ± 0.0057 | -0.014 ± 0.0042 | 0.0055 ± 0.015 | 0.0025 ± 0.0035 | -0.001 ± 0.0099 | -0.0005 ± 0.0035 | -0.014 ± 0.014 | -0.009 ± 0.014 | -0.007 ± 0.025 | -0.0145 ± 0.0035 | -0.0195 ± 0.00071 | -0.0015 ± 0.0035 | -0.0015 ± 0.016 | 0.0045 ± 0.00071 | -0.005 ± 0.013 | -0.0005 ± 0.0064 | -0.0015 ± 0.0035
2 | lMphg:CD106/VCAM-1 | -0.0325 ± 0.028 | -0.017 ± 0.0014 | -0.009 ± 0.0099 | -0.005 ± 0.013 | -0.058 ± 0.04 | 0.0115 ± 0.037 | 0.001 ± 0.014 | -0.009 ± 0.0057 | -0.0135 ± 0.0092 | -0.022 ± 0.023 | -0.011 ± 0.021 | 0.015 ± 0.014 | 0.0515 ± 0.0092 | 0.0645 ± 0.026 | -0.0385 ± 0.0035 | -0.0535 ± 0.026 | 0.0045 ± 0.011 | -0.005 ± 0.0057 | -0.0255 ± 0.00071
3 | CASM3C:M-CSF | 0.006 ± 0.025 | -0.0065 ± 0.043 | -0.0135 ± 0.016 | 0.009 ± 0.0028 | -0.009 ± 0.03 | 0.002 ± 0.017 | -0.0165 ± 0.013 | -0.016 ± 0.014 | -0.006 ± 0.0028 | -0.0035 ± 0.0064 | 0.0185 ± 0.06 | 0 ± 0.016 | 0.0105 ± 0.077 | 0.0575 ± 0.042 | -0.0155 ± 0.0092 | 0.0165 ± 0.03 | -0.0135 ± 0.022 | -0.0185 ± 0.033 | 0.018 ± 0.018
4 | 3C:CD106/VCAM-1 | -0.014 ± 0.016 | -0.0155 ± 0.0078 | 0.0005 ± 0.026 | 0.0045 ± 0.035 | 0.0295 ± 0.015 | 0.0015 ± 0.00071 | -0.0045 ± 0.026 | 0.019 ± 0.018 | -0.021 ± 0.0057 | -0.0295 ± 0.026 | -0.025 ± 0.023 | -0.03 ± 0.038 | 0.049 ± 0.024 | -0.0295 ± 0.012 | -0.0145 ± 0.005 | -0.0025 ± 0.018 | 0.009 ± 0.018 | 0.004 ± 0.021 | -0.008 ± 0.0057
5 | 3C:CD142/Tissue Factor | 0.0275 ± 0.0078 | 0.0665 ± 0.018 | -0.0185 ± 0.07 | -0.0285 ± 0.073 | 0.0315 ± 0.067 | -0.0205 ± 0.015 | -0.0235 ± 0.005 | -0.053 ± 0.014 | 0.009 ± 0.0028 | 0.018 ± 0.0071 | 0.022 ± 0.0085 | -0.128 ± 0.0057 | -0.108 ± 0.031 | -0.106 ± 0.012 | -0.022 ± 0.058 | -0.005 ± 0.051 | -0.006 ± 0.02 | -0.004 ± 0.028 | -0.0685 ± 0.005
6 | CASM3C:LDLR | -0.0135 ± 0.013 | -0.028 ± 0.014 | -0.002 ± 0.0085 | -0.007 ± 0.0014 | -0.0165 ± 0.032 | -0.004 ± 0.017 | -0.0085 ± 0.0035 | -0.0075 ± 0.018 | 0.0005 ± 0.0021 | -0.001 ± 0.018 | 0.0095 ± 0.047 | 0.002 ± 0.013 | -0.0385 ± 0.059 | 0.0025 ± 0.0092 | -0.0135 ± 0.0021 | 0.03 ± 0.024 | -0.009 ± 0.0099 | -0.0175 ± 0.026 | -0.015 ± 0.014
7 | HDF3CGF:CXCL11/I-TAC | 0.0165 ± 0.015 | -0.0705 ± 0.08 | -0.0165 ± 0.016 | -0.0185 ± 0.00071 | -0.087 ± 0.017 | 0.012 ± 0.014 | -0.0155 ± 0.005 | -0.06 ± 0.013 | -0.0455 ± 0.12 | -0.084 ± 0.11 | -0.0825 ± 0.11 | -0.0385 ± 0.015 | -0.069 ± 0.0071 | -0.0495 ± 0.011 | 0.016 ± 0.0071 | -0.009 ± 0.023 | 0.014 ± 0.0014 | -0.011 ± 0.072 | -0.0115 ± 0.061
8 | lMphg:M-CSF | -0.0065 ± 0.03 | -0.0175 ± 0.015 | -0.003 ± 0.013 | -0.008 ± 0.0085 | 0.03 ± 0.0042 | -0.0265 ± 0.039 | -0.027 ± 0.051 | -0.0315 ± 0.032 | -0.0155 ± 0.0021 | 0.0035 ± 0.0064 | -0.046 ± 0.014 | -0.046 ± 0.0028 | -0.0305 ± 0.016 | -0.0015 ± 0.021 | -0.0185 ± 0.0035 | -0.0025 ± 0.033 | -0.028 ± 0.014 | -0.017 ± 0.0042 | -0.0175 ± 0.019
9 | CASM3C:CXCL8/IL-8 | 0.012 ± 0.016 | 0.016 ± 0.028 | 0.001 ± 0.038 | 0.0045 ± 0.025 | 0.0485 ± 0.0021 | -0.006 ± 0.0042 | -0.018 ± 0.0028 | -0.0045 ± 0.025 | 0.0055 ± 0.018 | -0.0055 ± 0.0021 | 0.0175 ± 0.00071 | -0.003 ± 0.017 | 0.012 ± 0.025 | 0.035 ± 0.021 | -0.015 ± 0.018 | -0.001 ± 0.016 | -0.002 ± 0.017 | -0.016 ± 0.014 | 0.0075 ± 0.0064
10 | lMphg:sIL-10 | -0.032 ± 0.0014 | -0.0315 ± 0.033 | -0.033 ± 0.076 | -0.0295 ± 0.012 | -0.727 ± 0.099 | 0.024 ± 0.0099 | -0.0365 ± 0.061 | 0.0125 ± 0.032 | -0.073 ± 0.0085 | -0.043 | -0.216 ± 0.011 | -0.0935 ± 0.016 | -0.115 ± 0.03 | -0.169 ± 0.1 | -0.0725 ± 0.016 | -0.121 ± 0.31 | -0.0745 ± 0.037 | -0.0775 ± 0.056 | -0.102 ± 0.0078
11 | BE3C:tPA | 0.04 ± 0.075 | 0.0035 ± 0.06 | 0.119 ± 0.013 | -0.09 ± 0.0099 | -0.253 ± 0.025 | -0.026 ± 0.0071 | -0.0035 ± 0.025 | -0.0275 ± 0.032 | -0.0005 ± 0.005 | -0.0035 ± 0.013 | 0.0265 ± 0.013 | 0.186 ± 0.0057 | 0.192 ± 0.0099 | 0.176 ± 0.005 | -0.013 ± 0.0014 | 0.007 | -0.008 ± 0.0014 | -0.0465 ± 0.005 | -0.0085 ± 0.022
12 | BE3C:uPA | -0.0075 ± 0.05 | -0.0085 ± 0.056 | -0.003 ± 0.0099 | -0.031 | -0.122 ± 0.013 | 0.0025 ± 0.018 | -0.0035 ± 0.023 | 0.002 ± 0.03 | 0.0025 ± 0.011 | -0.009 ± 0.0085 | 0.0025 ± 0.005 | 0.008 ± 0.0085 | 0.0065 ± 0.0064 | 0.003 ± 0.0014 | -0.008 ± 0.011 | -0.004 ± 0.021 | -0.01 ± 0.0085 | -0.017 ± 0.0042 | -0.0075 ± 0.011
13 | BE3C:MMP-9 | -0.033 ± 0.071 | -0.04 ± 0.065 | -0.0185 ± 0.018 | -0.117 ± 0.0035 | -0.215 ± 0.086 | -0.0145 ± 0.018 | 0.004 ± 0.0014 | -0.032 ± 0.04 | -0.0025 ± 0.025 | -0.003 ± 0.014 | 0.0195 ± 0.033 | -0.094 ± 0.0014 | -0.11 ± 0.0057 | -0.102 ± 0.0064 | 0 ± 0.0042 | -0.0005 ± 0.0092 | -0.0035 ± 0.023 | -0.0025 ± 0.032 | 0.0145 ± 0.042
14 | CASM3C:IL-6 | 0.002 ± 0.051 | 0.0135 ± 0.094 | -0.0375 ± 0.0078 | -0.0465 ± 0.005 | -0.061 ± 0.099 | -0.0155 ± 0.0064 | -0.0375 ± 0.018 | -0.0145 ± 0.028 | -0.0035 ± 0.0064 | -0.008 ± 0.0057 | 0.0145 ± 0.05 | -0.0605 ± 0.036 | -0.066 ± 0.02 | -0.0025 ± 0.035 | -0.0235 ± 0.0092 | 0.015 ± 0.013 | -0.0175 ± 0.0035 | -0.015 ± 0.021 | 0.022 ± 0.082
15 | lMphg:SRB-Mphg | 0.0035 ± 0.011 | 0.006 ± 0.031 | -0.0005 ± 0.021 | 0.007 ± 0.0071 | 0.0055 ± 0.0035 | -0.0025 ± 0.0078 | -0.0125 ± 0.012 | 0.0035 ± 0.019 | 0.0115 ± 0.0035 | 0.0065 ± 0.015 | 0.007 ± 0.017 | 0.0005 ± 0.0035 | 0 ± 0.0042 | -0.018 ± 0.02 | 0.0095 ± 0.052 | 0.0365 ± 0.03 | -0.0075 ± 0.019 | -0.0055 ± 0.005 | 0.0075 ± 0.022

From the supplement of paper PMC10331698
